This assay concerns the target T1, β-glucosidase B (BglB) (Paenibacillus polymyxa, UniProt P22505).
T1 construct: previously cloned in pET29b+, expressed in E. coli, purified by nickel IMAC; band about 50 kD
Nature of the assay: Michaelis-Menten, 4-nitrophenol release at […] nm. It counts as biochemical. The settings on record: 0.11-100 mM substrate, readings every minute for 15 min; triplicate.

T1 sequence (P22505 whole entry): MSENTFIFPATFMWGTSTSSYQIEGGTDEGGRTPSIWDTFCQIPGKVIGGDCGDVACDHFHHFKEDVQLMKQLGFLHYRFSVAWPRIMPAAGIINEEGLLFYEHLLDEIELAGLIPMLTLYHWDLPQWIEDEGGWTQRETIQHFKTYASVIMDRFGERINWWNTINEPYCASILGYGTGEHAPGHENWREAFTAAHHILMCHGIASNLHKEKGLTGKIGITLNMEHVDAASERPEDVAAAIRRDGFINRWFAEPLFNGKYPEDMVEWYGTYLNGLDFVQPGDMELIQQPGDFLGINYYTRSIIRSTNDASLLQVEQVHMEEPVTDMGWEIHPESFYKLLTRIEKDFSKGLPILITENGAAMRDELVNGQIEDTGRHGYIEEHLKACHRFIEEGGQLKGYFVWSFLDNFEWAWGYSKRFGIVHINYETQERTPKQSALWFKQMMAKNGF

Turning to `O=[N+]([O-])c1ccc(O[C@@H]2O[C@H](CO)[C@@H](O)[C@H](O)[C@H]2O)cc1` [pNPG, p-nitrophenyl-beta-D-glucoside], the Km stood at 3.93 ± 0.26 mM.

The values above are taken from doi:10.1101/2025.05.22.655130v1, “Design to Data for mutants of β-glucosidase B from Paenibacillus polymyxa: L336M, L336A, L336S, L336H, D35E, D35W” (biorxiv, 2025).
